The text below walks through data of publication PMC2972219, “Ionotropic Glutamate Receptor AMPA 1 Is Associated with Ovulation Rate” (PLoS ONE, 2010).

As a reminder, the Kd is the equilibrium constant for the complex coming apart. Lower therefore signals a tighter complex. One may read the EC50 as the concentration needed to bring the measured effect to its halfway point.

The target in assay [1] is GRIA1^Ser (brain membrane fraction of S/S cows). Description: [3H]AMPA ligand binding assay, membrane fractions from brain of S/S cows. Further details: species or system bovine. Conditions: saturation binding of [3H]AMPA 1-200 nM, n = 3. The method, then:
(§1) Membrane fractions were extracted from bovine brain as described previously, and 25 µg of protein were resolved by SDS-PAGE and transferred to polyvinylidene difluoride membranes. The blots were incubated with rabbit polyclonal antibody to GRIA1 (1∶1000, AB1504, Millipore, Tokyo, Japan) or actin (1∶200, A2066, Sigma-Aldrich, St. Louis, MO).
(§2) Protein (500 µg/ml) was used for a ligand binding assay with [^3H] AMPA (392.2 GBq/mmol, 1–200 nM) as described previously. Non-specific binding obtained by incubating 1 mM L- glutamate in the binding assay was subtracted from total binding to yield specific [^3H] AMPA- binding.

Assay [2] deals with GRIA1 (brain membrane fraction of S/N cows). Description: [3H]AMPA ligand binding assay, membrane fractions from brain of S/N cows. Further details: species or system bovine. To be noted: saturation binding of [3H]AMPA 1-200 nM, n = 3. How it is done:
as §1, §2

Assay [3] concerns the target GRIA1^Asn (brain membrane fraction of N/N cows). Description: [3H]AMPA ligand binding assay, membrane fractions from brain of N/N cows. Further details: species or system bovine. To be noted: saturation binding of [3H]AMPA 1-200 nM, n = 3. The method, then: as §1, §2
In assay [4] the test system is LH release. Further details: method as in PMID 9331548. Conditions: infusion into the third cerebral ventricle, ovariectomized estrogen-primed adult female rats; cited from earlier work.
In assay [5] the target is T1, GRIA1^Ser (Bos taurus, UniProt G0T3G6).
T1 construct: expressed in transfected cells; host or cells: Xenopus oocytes (mRNA injection)
Description: Whole-cell current responses in Xenopus oocytes injected with GRIA1^Ser mRNA. Format: cell-based, bovine. Conditions: Xenopus oocytes expressing GRIA1^Ser alone, glutamate 1-300 µM, n = 10; read-out: EC50 of current response. How it is done: (§3) Bovine GRIA1 mRNAs were synthesized using mMESSAGE mMACHINE® SP6 Kit (Applied Biosystems) and injected into Xenopus oocytes as described previously. Whole-cell current responses to 1, 3, 10, 30, 100, and 300 µM glutamate were recorded as described previously.

The target in assay [6] is T2, GRIA1^Asn (Bos taurus, UniProt G0T3G6, S306N).
T2 construct: expressed in transfected cells; host or cells: Xenopus oocytes (mRNA injection)
Description: Whole-cell current responses in Xenopus oocytes injected with GRIA1^Asn mRNA. Format: cell-based, bovine. Conditions: Xenopus oocytes expressing GRIA1^Asn alone, glutamate 1-300 µM, n = 9; read-out: EC50 of current response. How it is done: as §3

Assay [7] has as its system GRIA1^Ser with GRIA2. In words: Whole-cell current responses in Xenopus oocytes coexpressing GRIA1^Ser with GRIA2. Format: cell-based, bovine. To be noted: Xenopus oocytes expressing GRIA1^Ser coexpressed with GRIA2, n = 8; read-out: EC50 of current response. The method, then: as §3
In assay [8] the test system is GRIA1^Asn with GRIA2. Description: Whole-cell current responses in Xenopus oocytes coexpressing GRIA1^Asn with GRIA2. Conditions: Xenopus oocytes expressing GRIA1^Asn coexpressed with GRIA2, n = 8; read-out: EC50 of current response. Format: cell-based, bovine. The method, then: as §3
Assay [9] concerns GT1-7 cells expressing GRIA1^Ser. Description: GnRH release from GT1-7 cells expressing GRIA1 (enzyme immunoassay). The assay is classed as cell-based, murine. Conditions: 100 µM glutamate for 30 min, GT1-7 cells expressing GRIA1^Ser compared with GRIA1^Asn. The method, then: We amplified bovine GRIA1 that had been cloned into pTracer-nucGFP with primers GRIA1InFusionF and R and then switched into pCAGGS (N-R) using the In-Fusion™ Advantage PCR Cloning Kit (Takara Bio Inc., Shiga, Japan) to produce HA-tagged protein under the control of a ubiquitous strong promoter that was based on the β-actin promoter.
GT1-7 cells were cultured in six-well dishes coated with poly-L-ornithine (BD Biocoat [PLO/LM] 354658, Becton Dickinson and Company, Franklin Lakes, NJ) with conditioned-Dulbecco's modified Eagles medium (C-MEM), which was comprised of a 1∶1 mixture of conditioned medium from mouse embryonic astrocytes in primary culture and Dulbecco's modified Eagles medium with high glucose (Invitrogen) supplemented with 10% fetal calf serum, penicillin (100 U/ml), and streptomycin (100 µg/ml). When cells reached 90 % confluence, C-MEM was replaced with Opti-MEM (Invitrogen) and transfected with Lipofectamine 2000 (Invitrogen) for 24 h.
The next day, confluent GT1-7 cells were treated as described previously. The concentration of GnRH in the media was assayed using an LH-releasing hormone enzyme immunoassay kit (S-1217, Peninsula Laboratories, LLC, San Carlos, CA) according to the manufacturer's instructions.

Each structure is given as a SMILES string.

T2 sequence (G0T3G6 19-906 S306N): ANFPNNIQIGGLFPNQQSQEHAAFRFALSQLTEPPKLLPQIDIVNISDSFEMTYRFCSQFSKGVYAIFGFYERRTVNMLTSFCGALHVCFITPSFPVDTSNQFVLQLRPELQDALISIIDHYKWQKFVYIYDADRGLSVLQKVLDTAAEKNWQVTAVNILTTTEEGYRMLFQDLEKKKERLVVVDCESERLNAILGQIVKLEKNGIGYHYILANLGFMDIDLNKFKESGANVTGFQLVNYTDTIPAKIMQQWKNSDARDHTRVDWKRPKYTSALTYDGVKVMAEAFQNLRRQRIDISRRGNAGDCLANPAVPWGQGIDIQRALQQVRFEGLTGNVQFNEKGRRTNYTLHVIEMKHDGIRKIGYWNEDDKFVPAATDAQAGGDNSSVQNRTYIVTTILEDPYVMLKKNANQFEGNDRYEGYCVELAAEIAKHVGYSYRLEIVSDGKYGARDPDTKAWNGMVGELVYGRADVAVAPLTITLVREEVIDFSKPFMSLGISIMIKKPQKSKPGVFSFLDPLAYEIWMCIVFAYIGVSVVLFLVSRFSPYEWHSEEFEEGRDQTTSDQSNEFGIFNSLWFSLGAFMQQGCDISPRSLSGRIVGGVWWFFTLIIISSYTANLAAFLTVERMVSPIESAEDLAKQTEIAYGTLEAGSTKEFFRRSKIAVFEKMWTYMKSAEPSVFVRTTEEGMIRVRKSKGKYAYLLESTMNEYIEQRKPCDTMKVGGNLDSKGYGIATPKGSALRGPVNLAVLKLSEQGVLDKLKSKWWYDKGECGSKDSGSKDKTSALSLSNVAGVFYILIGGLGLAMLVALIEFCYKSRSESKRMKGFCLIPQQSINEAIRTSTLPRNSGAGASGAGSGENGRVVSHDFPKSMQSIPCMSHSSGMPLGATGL
T1 sequence (G0T3G6 19-906): as the sequence (G0T3G6 19-906 S306N) above, with N288S counted along it

On to `Cc1o[nH]c(=O)c1CC(N)C(=O)O` (stereo not drawn) [AMPA], for which the dissociation constant (Kd) in [1] is 0.0277 µM; in assay [2], 0.0436 µM; in [3], 0.0596 µM. The LH release result in [4] was “induces LH release”.

On to `N[C@@H](CCC(=O)O)C(=O)O` [glutamate], for which the EC50 is 4.5 µM in [5], 10.7 µM in [6], 4.9 µM in [7] and 10.4 µM in assay [8]. Moreover, the GnRH release entry in assay [9] is recorded as “induced the release of more GnRH than that from cells expressing GRIA1^Asn”.
